Experimental data as given in the Bradley open melting point set (2014).
Counter-ions that a name gives are not always drawn.

In the case of `CC1=C(C)C(=O)C(C(CCCCCC(=O)O)c2ccccc2)=C(C)C1=O` (stereo unspecified) [seratrodast], the melting point is reported as 128 °C.
For `O=Cc1ccc([N+](=O)[O-])cc1[N+](=O)[O-]` [2,4-dinitrobenzaldehyde], the melting point was 66 °C.
Molecule `CC1COc2c(N3CCN(C)CC3)c(F)cc3c(=O)c(C(=O)O)cn1c23` (stereo unspecified) [Ofloxacin] has a melting point of 254 °C.
`c1cc2ccc3ccc4ccc5ccc6ccc1c1c2c3c4c5c61` [Coronene] gave a melting point of 438 °C.
With `C(=C/C#N)C#N` [fumaronitrile] the melting point was 97 °C.
For `O=C1C=CC(=O)c2ccccc21` [1,4-naphthoquinone], the melting point was 122 °C.
`C=CCCC` [Pent-1-ene] gave a melting point of -165 °C.
Work on `Cc1c(Cl)cccc1[N+](=O)[O-]` [2-chloro-6-nitrotoluene] yielded a melting point of 36 °C.
Molecule `OC1CCCCCCCCCCC1` [cyclododecanol] has a melting point of 78 °C.
With `CCC(C)CC(=O)O` (stereo unspecified) [3-methylvaleric acid] the melting point was -42 °C.
In the case of `CCSCC` [diethyl sulfide], the melting point is reported as -104 °C.
Molecule `O=[N+]([O-])c1ccc(O)c2ncccc12` [8-hydroxy-5-nitroquinoline] has a melting point of 180 °C.
Work on `C=C(F)Cl` [1-Chloro-1-fluoroethene] yielded a melting point of -169 °C.
Work on `Cc1c(C)n(C#N)c2ccccc12` [2,3-dimethyl-1H-indole-1-carbonitrile] yielded a melting point of 97 °C.
`CC(C)C(O)C(C)(C)C` (stereo unspecified) [2,2,4-trimethyl-3-pentanol] gave a melting point of -11 °C.
With `c1ccc(-c2csc(-c3cccnc3)n2)cc1` [4-phenyl-2-(3-pyridyl)thiazole] the melting point was 54 °C.
`c1ccc2c(c1)Cc1ccccc1C2` [9,10-Dihydroanthracene] showed a melting point of 109 °C.
`N#Cc1ccncc1I` [4-cyano-3-iodopyridine] showed a melting point of 121 °C.
For `C=CCC(CC)(CC)C(N)=O` [novonal], the melting point was 75 °C.
With `CCCOC(=O)c1ccc(O)cc1` [propylparaben] the melting point was 97 °C.
For `FC(F)(F)c1ccc2cccnc2c1` [7-(trifluoromethyl)quinoline], the melting point was 66 °C.
For `C[C@H](CS)C(=O)N1CCC[C@H]1C(=O)O` [Captopril], the melting point was 106 °C.
In the case of `O=Cc1ccccc1Br` [o-bromobenzaldehyde], the melting point is reported as 22 °C.
In the case of `COc1ccc2c(c1)C(=O)CC2` [6-methoxy-1-indanone], the melting point is reported as 103 °C.
In the case of `Clc1ccccn1` [2-chloropyridine], the melting point is reported as -46 °C.
For `CCCCCCCCCCCCCCCCC(=O)O` [heptadecanoic acid], the melting point was 61 °C.
Work on `O=C(Cl)c1cc([N+](=O)[O-])cc([N+](=O)[O-])c1` [3,5-dinitrobenzoyl chloride] yielded a melting point of 67 °C.
`COC(=O)c1ccccc1C(N)=O` [phthalic_acid,_methylester_amide] showed a melting point of 100 °C.
For `CCOC(=O)CC(O)(CC(=O)OCC)C(=O)OCC` [triethyl citrate], the melting point was -55 °C.
Work on `Cc1cc(O)ccc1Cl` [4-chloro-3-methylphenol] yielded a melting point of 67 °C.
With `COCC(=O)O` [methoxyacetic acid] the melting point was 8 °C.
Molecule `O=Cc1ccc(O)c(O)c1` [3,4-dihydroxybenzaldehyde] has a melting point of 155 °C.
In the case of `COc1ccc(B(O)O)c(OC)c1OC` [2,3,4-trimethoxybenzeneboronic acid], the melting point is reported as 77 °C.
`COc1ccc(N=C(CNc2ccc(OC)cc2)Nc2ccc(OC)cc2)cc1` gave a melting point of 159 °C.
`C[SiH](C)O[SiH](C)C` [1,1,3,3-tetramethyldisiloxane] showed a melting point of -78 °C.
In the case of `COc1ccccc1N/N=C1\C(=O)N(CN2CCCCC2)N=C1C`, the melting point is reported as 149 °C.
`CC(C)CCC[C@@H](C)[C@H]1CC[C@H]2[C@@H]3CCC4=CC(=O)CC[C@]4(C)[C@H]3CC[C@]12C` [4-cholesten-3-one] showed a melting point of 80 °C.
Work on `CCCCCCCCCC(C)O` (stereo unspecified) [2-undecanol] yielded a melting point of 2 °C.
`O=C1Cc2cccc(Br)c21` [5-bromobicyclo[4.2.0]octa-1,3,5-trien-7-one] showed a melting point of 82 °C.
`OCc1ccccc1CO` [1,2-benzenedimethanol] showed a melting point of 64 °C.
`COC(=O)c1ccccc1O` [methyl_salicylate] showed a melting point of -7 °C.
